The test system of the series is Human PBMC. The series can be described thus: Cytokine production upon human PBMC stimulation (ORN complexed to DOTAP, 16 h, ELISA). As to conditions: for EC50 / IFN-alpha max activity / TNF-alpha max activity: human PBMC, ORN complexed to DOTAP, 16 h; for EC50: full titration 2 μM to 0.9 nM; for IFN-alpha max activity / TNF-alpha max activity: mean max activity at 0.6 μM, 3-6 blood donors; for IFN-alpha / TNF-alpha: human PBMC stimulated for 16 h, supernatant ELISA. More on the design: key to IFN-alpha / TNF-alpha: +: cytokine production; −: no cytokine production. The format is cell-based. As to the method:
Human peripheral blood mononuclear cells (PBMCs) were isolated from healthy donors, plated, and stimulated in vitro with various test and control immunostimulatory agents for 16 hours. After 16 hours, the supernatants were collected and then analyzed by ELISA assay. N-U-R1-R2,-Containing Oligoribonucleotides were tested complexed to DOTAP and with full titration curves (7 concentrations), starting from 2 μM ORN complexed to 25 μg/ml DOTAP and with 1/3 dilution steps. Also included were certain negative controls, including medium alone and DOTAP (25 μg/ml culture well; “Liposomes”) alone. The control immunostimulatory agents included the imidazoquinoline R-848 (2 μM with 1/3 dilution steps and 7 concentrations) the reported ligand for TLR7, ORN having TLR8 motifs such as AU and AUU sequences (SEQ ID NO:13-SEQ ID NO:15) ORN having TLR7/8 motifs such as CU, GU and GUU sequences (SEQ ID NO:19-SEQ ID NO:23).
Human PBMC were stimulated with ORN complexed to DOTAP. After 16 hours supernatants were harvested and TNF-alpha and IFN-alpha levels were measured. Mean/Max activities at 0.6 μM of 3-6 blood donors and two individual experiments were determined. […] TLR8 and TLR7/8 ORN are divided by a red line.
Human PBMC were stimulated with ORN complexed to DOTAP. After 16 hours supernatants were harvested and IFN-alpha levels were measured. Mean/Max activities at 0.6 μM and EC50 of full titration curves (range: 2 μM to 0.9 nM) of 3-6 blood donors and two individual experiments were determined. […] Low EC50/high Max activity represents TLR7/8 ORN (FIG. 5a) whereas high EC50 and low Max activity represents TLR8 ORN (FIG. 5b).
The ORN sequences listed in Table 1 were tested for IFN-alpha and TNF-alpha production upon human PBMC stimulation. Human PBMC were stimulated for 16 h with the indicated ORN, and supernatants were harvested and cytokine production measured by ELISA. Table 2 summarizes the min/max activity and EC50 of ORN for IFN-alpha and TNF-alpha production.
For orientation: In an ELISA, binding on a coated surface is turned into a signal by an enzyme label.

Where two headings read alike, the source gives them in different places. A value given as a limit tells only on which side of the number the result lay.

As for “C*C*G*A*G*C*C*G*C*U*U*A*C*C*C*C (CCGAGCCGCUUACCCC; listed as RNA, chemistry not fully specified) [SEQ ID NO: 53]”, the IFN-alpha max activity was 3091 pg/mL and the TNF-alpha max activity stood at 14623 pg/mL. For the same substance, the half-maximal effective concentration (EC50) – broadly, the concentration that produces a half-maximal response – (read-out: IFN-alpha EC50) turned out to be 244 nM. Also, for the setting “read-out: TNF-alpha EC50”, the EC50 turned out to be 952 nM.

As to “G*U*G*U*G*U*G*U*G*U*G*U*G*U*G*U*G*U*G*U (GUGUGUGUGUGUGUGUGUGU; listed as RNA, chemistry not fully specified) [SEQ ID NO: 20]”, the IFN-alpha result is on record as “+” and the TNF-alpha entry was “+”.

Turning to “C*C*G*A*G*C*C*G*A*A*G*C*U*G*C*C (CCGAGCCGAAGCUGCC; listed as RNA, chemistry not fully specified) [SEQ ID NO: 88]”, the IFN-alpha max activity amounted to 73.19 pg/mL and the TNF-alpha max activity turned out to be 11996 pg/mL. Besides, the EC50 (read-out: IFN-alpha EC50) was over 2000 nM.

“C*C*G*A*G*C*C*G*A*A*G*G*U*C*C*C (CCGAGCCGAAGGUCCC; listed as RNA, chemistry not fully specified) [SEQ ID NO: 86]” displayed an IFN-alpha max activity of 856.5 pg/mL and a TNF-alpha max activity of 4178 pg/mL. The concentration giving a half-maximal response (EC50) (read-out: IFN-alpha EC50) came to 767 nM. The EC50 (read-out: TNF-alpha EC50) is 850 nM.

“C*C*G*A*G*C*C*G*A*U*U*U*A*A*C*C (CCGAGCCGAUUUAACC; listed as RNA, chemistry not fully specified) [SEQ ID NO: 73]”: the IFN-alpha max activity is 1395 pg/mL and the TNF-alpha max activity was 31619 pg/mL. In addition, the EC50 (read-out: IFN-alpha EC50) was found to be 55 nM. For the same substance, where the note is “read-out: TNF-alpha EC50”, the concentration for a half-maximal effect (EC50) was 163 nM.

“C*C*G*A*G*C*C*G*A*U*U*U*T*A*C*C (CCGAGCCGAUUUNACC; Oligoribonucleotide, chemistry of T and the '*' linkage is not given here, further chemistry not given here) [SEQ ID NO: 72]” had an IFN-alpha max activity of 1896 pg/mL and a TNF-alpha max activity of 38811 pg/mL. Further, the concentration giving a half-maximal response (EC50) (read-out: IFN-alpha EC50) worked out at 75 nM. For the same substance, under “read-out: TNF-alpha EC50”, the EC50 is 146 nM.

In the case of “U*U*I*U*U*I*U*U*I*U*U*I*U*U*I*U*U*I*U*U (UUNUUNUUNUUNUUNUUNUU; inosine, phosphorothioate linkages, chemistry not fully specified) [SEQ ID NO: 28]”, the IFN-alpha result is given as “+” and the TNF-alpha entry is “+”.

“C*C*G*A*G*C*C*G*C*A*U*U*C*C*C*C (CCGAGCCGCAUUCCCC; listed as RNA, chemistry not fully specified) [SEQ ID NO: 54]” returned an IFN-alpha max activity of 1233 pg/mL and a TNF-alpha max activity of 12595 pg/mL. Moreover, for the setting “read-out: IFN-alpha EC50”, the EC50 was found to be 780 nM. Besides, the 50% effective concentration (EC50) (read-out: TNF-alpha EC50) stood at 339 nM.

Consider “dN*dN*dN*dN*dN*A*U*A*U*A*U*A*U*dN*dN*dN*dN*dN*dN [SEQ ID NO: 9]”, for which the IFN-alpha entry was “−” and the TNF-alpha result was “+”.

With “U*U*U*G*U*U*U*G*U*U*U*G*U*U*U*G*U*U*U*G (UUUGUUUGUUUGUUUGUUUG; listed as RNA, chemistry not fully specified) [SEQ ID NO: 22]”, the IFN-alpha result was “+” and the TNF-alpha entry is “+”.

Consider “C*C*G*A*G*C*C*G*C*U*A*U*U*C*C*C (CCGAGCCGCUAUUCCC; listed as RNA, chemistry not fully specified) [SEQ ID NO: 51]”, for which the IFN-alpha max activity was determined as 2615 pg/mL and the TNF-alpha max activity was 23325 pg/mL. For the same substance, the 50% effective concentration (EC50) (read-out: IFN-alpha EC50) was found to be 582 nM. Under “read-out: TNF-alpha EC50”, the EC50 was found to be 125 nM.

Substance “C*C*G*A*G*C*C*G*A*A*G*C*U*A*C*C (CCGAGCCGAAGCUACC; listed as RNA, chemistry not fully specified) [SEQ ID NO: 87]” gave an IFN-alpha max activity of 100.5 pg/mL and a TNF-alpha max activity of 12979 pg/mL. Moreover, the EC50 (read-out: IFN-alpha EC50) was over 2000 nM. Moreover, the EC50 (read-out: TNF-alpha EC50) amounted to 346 nM.

As to “C*C*G*A*G*C*C*G*C*A*U*A*U*C*C*C (CCGAGCCGCAUAUCCC; listed as RNA, chemistry not fully specified) [SEQ ID NO: 36]”, the IFN-alpha max activity was 110.4 pg/mL and the TNF-alpha max activity was determined as 18063 pg/mL. The EC50 (read-out: IFN-alpha EC50) is at least 1500 nM. Besides, the EC50 (read-out: TNF-alpha EC50) is 850 nM.

With “U*G*U*G*U*G*U (UGUGUGU; phosphorothioate linkages, chemistry not fully specified) [SEQ ID NO: 31]”, the IFN-alpha entry was “+” and the TNF-alpha result is on record as “+”.

As for “A*A*A*U*A*A*A*U*A*A*A*U*A*A*A*U*A*A*A*U (AAAUAAAUAAAUAAAUAAAU; listed as RNA, chemistry not fully specified) [SEQ ID NO: 17]”, the IFN-alpha result is on record as “−” and the TNF-alpha entry is on record as “+”.

“C*C*G*A*G*C*C*G*C*A*U*A*A*C*C*C (CCGAGCCGCAUAACCC; listed as RNA, chemistry not fully specified) [SEQ ID NO: 41]”: the IFN-alpha max activity turned out to be 97.97 pg/mL and the TNF-alpha max activity amounted to 10756 pg/mL. Further, the half-maximal effective concentration (EC50) (read-out: IFN-alpha EC50) is over 2000 nM. Besides, where the note is “read-out: TNF-alpha EC50”, the concentration for a half-maximal effect (EC50) turned out to be 897 nM.

Turning to “C*C*G*A*G*C*C*G*C*C*G*C*C*C*C*C (CCGAGCCGCCGCCCCC; listed as RNA, chemistry not fully specified) [SEQ ID NO: 35]”, the IFN-alpha max activity turned out to be 70.6 pg/mL and the TNF-alpha max activity worked out at 2854 pg/mL. In addition, the EC50 (read-out: IFN-alpha EC50) was over 2000 nM.

With “C*C*G*A*G*C*C*G*A*A*U*A*C*C*C*C (CCGAGCCGAAUACCCC; listed as RNA, chemistry not fully specified) [SEQ ID NO: 42]”, the IFN-alpha max activity came out at 392.4 pg/mL and the TNF-alpha max activity came out at 17418 pg/mL. In addition, where the note is “read-out: IFN-alpha EC50”, the concentration for a half-maximal effect (EC50) was at least 1500 nM. For the same substance, the EC50 (read-out: TNF-alpha EC50) was 395 nM.

“U*U*A*U*U*A*U (UUAUUAU; phosphorothioate linkages, chemistry not fully specified) [SEQ ID NO: 30]”: the IFN-alpha entry is listed as “−” and the TNF-alpha result was “+”.

For the substance “C*C*G*A*G*C*C*G*A*A*G*G*C*A*C*C (CCGAGCCGAAGGCACC; listed as RNA, chemistry not fully specified) [SEQ ID NO: 56]”, the IFN-alpha max activity came to 59.84 pg/mL and the TNF-alpha max activity was 4430 pg/mL. The EC50 (read-out: IFN-alpha EC50) was over 2000 nM.

For “C*U*C*U*C*U*C*U*C*U*C*U*C*U*C*U*C*U*C*U (CUCUCUCUCUCUCUCUCUCU; listed as RNA, chemistry not fully specified) [SEQ ID NO: 19]”, the IFN-alpha entry is “+” and the TNF-alpha entry is “+”.

“C*C*G*A*G*C*C*G*A*A*U*U*C*A*C*C (CCGAGCCGAAUUCACC; listed as RNA, chemistry not fully specified) [SEQ ID NO: 80]” came in with an IFN-alpha max activity of 1225 pg/mL and a TNF-alpha max activity of 28108 pg/mL. Also, where the note is “read-out: IFN-alpha EC50”, the half-maximal effective concentration (EC50) was determined as 33 nM. Further, the EC50 (read-out: TNF-alpha EC50) was determined as 217 nM.

For the substance “C*C*G*A*G*C*C*G*C*C*U*A*A*C*C*C (CCGAGCCGCCUAACCC; listed as RNA, chemistry not fully specified) [SEQ ID NO: 43]”, the IFN-alpha max activity amounted to 144.3 pg/mL and the TNF-alpha max activity came to 10261 pg/mL. Also, for the setting “read-out: IFN-alpha EC50”, the EC50 is over 2000 nM. Moreover, the EC50 (read-out: TNF-alpha EC50) stood at 954 nM.

Substance “C*C*G*A*G*C*C*G*C*A*U*U*A*C*C*C (CCGAGCCGCAUUACCC; listed as RNA, chemistry not fully specified) [SEQ ID NO: 48]” registered an IFN-alpha max activity of 543.4 pg/mL and a TNF-alpha max activity of 9988 pg/mL. The EC50 (read-out: IFN-alpha EC50) is 750 nM. Also, the concentration for a half-maximal effect (EC50) (read-out: TNF-alpha EC50) came to 801 nM.

“C*C*G*A*G*C*C*G*A*C*U*G*U*A*C*C (CCGAGCCGACUGUACC; listed as RNA, chemistry not fully specified) [SEQ ID NO: 61]” returned an IFN-alpha max activity of 587.7 pg/mL and a TNF-alpha max activity of 42180 pg/mL. Also, the EC50 (read-out: IFN-alpha EC50) came out at 736 nM. Further, for the setting “read-out: TNF-alpha EC50”, the half-maximal effective concentration (EC50) worked out at 141 nM.

Regarding “C*C*G*A*G*C*C*G*A*G*U*U*C*A*C*C [SEQ ID NO: 77] (CCGAGCCGAGUUCACC; listed as RNA, chemistry not fully specified)”, the IFN-alpha max activity was 2519 pg/mL and the TNF-alpha max activity is 21820 pg/mL. Besides, the EC50 (read-out: IFN-alpha EC50) amounted to 151 nM. For the same substance, the 50% effective concentration (EC50) (read-out: TNF-alpha EC50) came to 257 nM.
